{"source": "patent US8628788B2", "about": "“Formulations containing a non-oxidative biocide and a source of active halogen and use thereof in water treatment” (Bromine Compounds, Ltd., priority 2006, dated 2014)", "tested_on": "Pseudomonas aeruginosa (ATCC 15442)", "test": "Simulated biofilm (bacteria entrapped in alginate gel beads)", "type": "cell-based", "conditions": "2.5 ppm DBNPA, 30 minutes contact time", "text": "The biofilm simulation was created by entrapping bacteria in alginate gel beads."}
{"molecule": "N#CC(Br)(Br)C(N)=O", "note": "[DBNPA, 2,2-Dibromo-3-nitrilopropionamide]", "values": [{"measurement": "log reduction (as compared to control)", "result": 3, "unit": "log reduction"}]}
